The results in this text go back to patent US9139587B2, “N1-pyrazolospiroketone acetyl-CoA carboxylase inhibitors” (Pfizer Inc., priority 2009, dated 2015).

For test [1], the target named is T1, recombinant human ACC1 (rhACC1) (Homo sapiens, UniProt Q13085, DEL44-44).
T1 construct: recombinant baculovirus containing full length human ACC1 cDNA; made in house; host or cells: SF9 insect cells (baculovirus)
Briefly: recombinant hACC1 Transcreener assay (direct inhibition of ACC1 activity). In kind it is biochemical. The following applies: Transcreener ADP detection FP assay, 50 μM ATP, 30 μM acetyl-CoA, 120 min at 25° C. The protocol: For example direct inhibition of ACC activity, for the compound of Formula (1) was determined using preparations of recombinant human ACC1 (rhACC1) and recombinant human ACC2 (rhACC2). Representative sequences of the recombinant human ACC1 and ACC2 that can be used in the assay are provided in FIG. 1 (SEQ ID NO. 1) and FIG. 2 (SEQ. ID NO. 2), respectively. Preparation of rhACC1. Two liters of SF9 cells, infected with recombinant baculovirus containing full length human ACC1 cDNA, were suspended in ice-cold lysis buffer (25 mM Tris, pH 7.5; 150 mM NaCl; 10% glycerol; 5 mM imidazole (EMD Bioscience; Gibbstown, N.J.); 2 mM TCEP (BioVectra; Charlottetown, Canada); Benzonase nuclease (10000 U/100 g cell paste; Novagen; Madison, Wis.); EDTA-free protease inhibitor cocktail (1 tab/50 mL; Roche Diagnostics; Mannheim, Germany). Cells were lysed by 3 cycles of freeze-thaw and centrifuged at 40,000×g for 40 minutes (4° C.). Supernatant was directly loaded onto a HisTrap FF crude column (GE Healthcare; Piscataway, N.J.) and eluted with an imidazole gradient up to 0.5 M over 20 column volumes (CV). ACC1-containing fractions were pooled and diluted 1:5 with 25 mM Tris, pH 7.5, 2 mM TCEP, 10% glycerol and direct loaded onto a CaptoQ (GE Healthcare) column and eluted with an NaCl gradient up to 1 M over 20 CV's. Phosphate groups were removed from purified ACC1 by incubation with lambda phosphatase (100 U/10 μM target protein; New England Biolabs; Beverly, Mass.) for 14 hours at 4° C.; okadaic acid was added (1 μM final concentration; Roche Diagnostics) to inhibit the phosphatase. Purified ACC1 was exchanged into 25 mM Tris, pH 7.5, 2 mM TCEP, 10% glycerol, 0.5 M NaCl by 6 hour dialysis at 4° C. Aliquots were prepared and frozen at −80° C. […] The final conditions for the assay were 50 mM HEPES, pH 7.2, 10 mM MgCl2, 7.5 mM tripotassium citrate, 2 mM DTT, 0.1 mg/mL BSA, 30 μM acetyl-CoA, 50 μM ATP, and 10 mM KHCO3 Typically, a 10 μl reaction was run for 120 min at 25° C., and 10 μl of Transcreener stop and detect buffer was added and the combination incubated at room temp for an additional 1 hour. The data was acquired on a Envision Fluorescence reader (Perkinelmer) using a 620 excitation Cy5 FP general dual mirror, 620 excitation Cy5 FP filter, 688 emission (S) and a 688 (P) emission filter.

The target in test [2] is T2, recombinant human ACC2 (rhACC2) (Homo sapiens, UniProt O00763, V2141I).
T2 construct: a full length Cytomax clone of ACC2 was purchased from Cambridge Bioscience Limited; made in house; host or cells: CHO cells (tetracycline-induced, pcDNA5 FRT TO-TOPO)
T2 sequence (O00763 whole entry V2141I): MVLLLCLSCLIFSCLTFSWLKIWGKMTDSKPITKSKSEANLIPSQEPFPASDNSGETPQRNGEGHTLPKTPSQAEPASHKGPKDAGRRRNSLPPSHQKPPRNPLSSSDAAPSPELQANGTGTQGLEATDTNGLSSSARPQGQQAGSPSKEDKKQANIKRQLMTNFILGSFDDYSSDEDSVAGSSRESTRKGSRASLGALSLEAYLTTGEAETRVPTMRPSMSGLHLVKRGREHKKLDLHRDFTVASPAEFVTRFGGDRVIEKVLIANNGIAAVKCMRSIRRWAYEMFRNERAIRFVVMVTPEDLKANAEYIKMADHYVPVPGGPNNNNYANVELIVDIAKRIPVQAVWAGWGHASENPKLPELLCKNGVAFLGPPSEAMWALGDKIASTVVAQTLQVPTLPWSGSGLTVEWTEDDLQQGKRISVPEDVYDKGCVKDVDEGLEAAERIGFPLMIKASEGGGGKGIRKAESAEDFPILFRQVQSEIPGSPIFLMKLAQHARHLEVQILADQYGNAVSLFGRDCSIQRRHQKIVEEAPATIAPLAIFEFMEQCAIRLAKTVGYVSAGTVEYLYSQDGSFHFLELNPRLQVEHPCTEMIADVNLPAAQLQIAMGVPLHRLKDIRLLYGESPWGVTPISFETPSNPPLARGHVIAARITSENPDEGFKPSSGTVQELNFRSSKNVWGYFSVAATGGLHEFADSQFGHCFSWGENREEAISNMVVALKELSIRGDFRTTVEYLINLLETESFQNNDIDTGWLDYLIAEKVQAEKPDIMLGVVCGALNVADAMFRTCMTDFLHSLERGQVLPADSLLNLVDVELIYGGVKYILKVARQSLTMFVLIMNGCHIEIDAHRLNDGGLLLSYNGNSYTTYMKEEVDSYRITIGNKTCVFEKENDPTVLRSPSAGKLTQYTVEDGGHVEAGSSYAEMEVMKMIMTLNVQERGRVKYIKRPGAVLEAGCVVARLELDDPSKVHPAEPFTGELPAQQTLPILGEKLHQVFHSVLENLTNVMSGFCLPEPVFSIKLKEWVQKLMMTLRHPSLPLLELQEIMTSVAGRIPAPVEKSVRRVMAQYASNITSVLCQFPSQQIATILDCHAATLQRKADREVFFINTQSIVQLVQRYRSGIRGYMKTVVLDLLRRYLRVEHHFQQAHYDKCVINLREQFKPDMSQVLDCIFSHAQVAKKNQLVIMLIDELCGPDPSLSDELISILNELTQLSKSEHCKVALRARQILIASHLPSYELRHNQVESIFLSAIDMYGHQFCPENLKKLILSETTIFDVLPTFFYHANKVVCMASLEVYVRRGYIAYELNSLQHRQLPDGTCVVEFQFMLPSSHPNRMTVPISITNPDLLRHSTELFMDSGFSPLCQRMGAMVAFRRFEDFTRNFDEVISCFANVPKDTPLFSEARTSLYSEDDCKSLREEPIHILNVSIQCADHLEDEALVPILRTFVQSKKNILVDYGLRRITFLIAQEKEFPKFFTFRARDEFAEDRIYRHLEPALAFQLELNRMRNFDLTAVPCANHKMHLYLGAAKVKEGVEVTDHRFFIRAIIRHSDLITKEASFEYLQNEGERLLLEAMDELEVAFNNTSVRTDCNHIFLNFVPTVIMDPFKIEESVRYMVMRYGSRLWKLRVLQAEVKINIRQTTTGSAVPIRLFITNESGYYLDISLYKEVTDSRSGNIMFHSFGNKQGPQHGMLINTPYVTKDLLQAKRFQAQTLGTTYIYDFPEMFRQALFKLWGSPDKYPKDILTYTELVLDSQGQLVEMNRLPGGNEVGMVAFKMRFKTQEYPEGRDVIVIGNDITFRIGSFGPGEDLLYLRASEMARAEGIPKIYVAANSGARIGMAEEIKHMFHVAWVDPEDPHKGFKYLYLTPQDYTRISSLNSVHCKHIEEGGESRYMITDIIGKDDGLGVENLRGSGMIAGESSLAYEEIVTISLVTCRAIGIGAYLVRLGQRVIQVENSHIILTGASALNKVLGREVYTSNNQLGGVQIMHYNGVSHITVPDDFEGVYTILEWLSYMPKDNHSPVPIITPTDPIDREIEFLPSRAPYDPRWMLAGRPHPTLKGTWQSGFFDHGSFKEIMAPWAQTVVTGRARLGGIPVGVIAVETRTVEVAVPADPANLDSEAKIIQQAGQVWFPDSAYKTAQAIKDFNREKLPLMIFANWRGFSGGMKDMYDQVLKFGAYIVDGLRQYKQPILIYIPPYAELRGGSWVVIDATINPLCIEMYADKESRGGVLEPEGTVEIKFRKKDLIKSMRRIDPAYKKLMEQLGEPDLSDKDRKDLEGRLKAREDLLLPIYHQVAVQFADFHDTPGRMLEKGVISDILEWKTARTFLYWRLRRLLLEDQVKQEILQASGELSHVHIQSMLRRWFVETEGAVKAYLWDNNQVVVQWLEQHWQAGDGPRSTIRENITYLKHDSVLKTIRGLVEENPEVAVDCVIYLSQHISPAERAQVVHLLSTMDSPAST
Briefly: recombinant hACC2 Transcreener assay (direct inhibition of ACC2 activity). Format: biochemical. The following applies: Transcreener ADP detection FP assay, 50 μM ATP, 30 μM acetyl-CoA, 50 min at 25° C. The protocol:
For example direct inhibition of ACC activity, for the compound of Formula (1) was determined using preparations of recombinant human ACC1 (rhACC1) and recombinant human ACC2 (rhACC2). Representative sequences of the recombinant human ACC1 and ACC2 that can be used in the assay are provided in FIG. 1 (SEQ ID NO. 1) and FIG. 2 (SEQ. ID NO. 2), respectively.
[3] Preparation of rhACC2. Human ACC2 inhibition was measured using purified recombinant human ACC2 (hrACC2). Briefly, a full length Cytomax clone of ACC2 was purchased from Cambridge Bioscience Limited and was sequenced and subcloned into PcDNA5 FRT TO-TOPO (Invitrogen, Carlsbad, Calif.). The ACC2 was expressed in CHO cells by tetracycline induction and harvested in 5 liters of DMEM/F12 with glutamine, biotin, hygromycin and blasticidin with 1 μg/mL tetracycline (Invitrogen, Carlsbad, Calif.). The conditioned medium containing ACC2 was then applied to a Softlink Soft Release Avidin column (Promega, Madison, Wis.) and eluted with 5 mM biotin. 4 mgs of ACC2 were eluted at a concentration of 0.05 mg/mL (determined by A280) with an estimated purity of 95% ([…]). The purified ACC2 was dialyzed in 50 mM Tris, 200 mM NaCl, 4 mM DTT, 2 mM EDTA, and 5% glycerol. The pooled protein was frozen and stored at −80° C., with no loss of activity upon thawing. For measurement of ACC2 activity and assessment of ACC2 inhibition, test compounds were dissolved in DMSO and added to the rhACC2 enzyme as a 5× stock with a final DMSO concentration of 1%.
[4] Measurement of human ACC2 inhibition. hACC2 was assayed in a Costar #3676 (Costar, Cambridge, Mass.) 384-well plate using the Transcreener ADP detection FP assay kit (Bellbrook Labs, Madison, Wisconsin) using the manufacturer's recommended conditions for a 50 uM ATP reaction. The final conditions for the assay were 50 mM HEPES, pH 7.2, 5 mM MgCl2, 5 mM tripotassium citrate, 2 mM DTT, 0.1 mg/mL BSA, 30 μM acetyl-CoA, 50 μM ATP, and 8 mM KHCO3 Typically, a 10 μl reaction was run for 50 min at 25° C., and 10 μl of Transcreener stop and detect buffer was added and the combination incubated at room temp for an additional 1 hour. The data was acquired on an Envision Fluorescence reader (Perkinelmer) using a 620 excitation Cy5 FP general dual mirror, 620 excitation Cy5 FP filter, 688 emission (S) and a 688 (P) emission filter.

On to `Cc1nc2c(F)cc(C(=O)N3CCC4(CC3)CC(=O)c3c(cnn3C(C)C)C4)cc2[nH]1` [Example 2A-54], for which the IC50 worked out at 214 nM in test [1] and 51.5 nM in test [2].
For `Cc1cccn2cc(C(=O)N3CCC4(CC3)CC(=O)c3c(cnn3C(C)(C)C)C4)nc12` [Example 11A-16] the same measures were 621 nM and 190 nM.
As to `CC(C)(C)n1ncc2c1C(=O)CC1(CCN(C(=O)c3cnc4ccnn4c3N)CC1)C2` [Example 2A-43], the figures for the concentration for half-maximal inhibition (IC50) in test [1] and in test [2] were 304 nM and 149 nM, respectively.
As to `CC(C)(C)n1ncc2c1C(=O)CC1(CCN(C(=O)c3ccc4c(c3)NC(=O)CC4)CC1)C2` [Example 2A-34], the results for the IC50 in test [1] and in test [2] were 72.4 nM and 32.1 nM, respectively.
In the same order, the values of `Cc1cc(C(=O)N2CCC3(CC2)CC(=O)c2c(cnn2C(C)C)C3)ccc1Cl` [Example 1A-1, 1-isopropyl-1′-(4-chloro-3-methylbenzoyl)-4,6-dihydrospiro[indazole-5,4′-piperidin]-7(1H)-one] are 267 nM and 68 nM.
In the same order, the values of `CC(C)n1ncc2c1C(=O)CC1(CCN(C(=O)c3ccc(N4CCOCC4)nc3)CC1)C2` [Example 11A-24] are 6060 nM and 836 nM.
For `CC(C)(C)n1ncc2c1C(=O)CC1(CCN(C(=O)c3ccc(-n4cncn4)cc3)CC1)C2` [Example 11A-72] the same measures were 867 nM and 153 nM.
Turning to `CC(C)n1ncc2c1C(=O)CC1(CCN(C(=O)c3cc4cccnc4[nH]3)CC1)C2` [Example 2A-20], the half-inhibitory concentration (IC50) in test [1] came to 121 nM; in test [2] it was 93 nM.
As for `CC(C)n1ncc2c1C(=O)CC1(CCN(C(=O)c3ccc4cc[nH]c(=O)c4c3)CC1)C2` [Example 2A-13], the results for the IC50 in test [1] and in test [2] were 95.3 nM and 28 nM, respectively.
As for `CC(C)(C)n1ncc2c1C(=O)CC1(CCN(C(=O)c3cc(Cl)c4[nH]ncc4c3)CC1)C2` [Example 2A-25], the concentration for half-maximal inhibition (IC50) in test [1] was determined as 69.5 nM; in test [2], 22.7 nM.
For `COCC(C)n1ncc2c1C(=O)CC1(CCN(C(=O)c3ccc(Cl)c(C)c3)CC1)C2` (stereo not drawn) [Example 2A-3] the same measures were 2720 nM and 680 nM.
As to `CC(C)(C)n1ncc2c1C(=O)CC1(CCN(C(=O)c3ccn4cncc4c3)CC1)C2` [Example 11A-32], the IC50 in test [1] is 155 nM; in test [2] it was 96.4 nM.
`Cc1cc(C(=O)N2CCC3(CC2)CC(=O)c2c(cnn2C(C)C)C3)n(-c2cccnc2)n1` [Example 11A-4]: the values for the IC50 in test [1] and in test [2] were 19600 nM and 5800 nM, respectively.
As to `CC(C)n1ncc2c1C(=O)CC1(CCN(C(=O)c3nn(-c4ccccc4)nc3N)CC1)C2` [Example 11A-6], the IC50 stood at 989 nM in test [1] and 459 nM in test [2].
As to `CC(C)(C)n1ncc2c1C(=O)CC1(CCN(C(=O)c3ccc4[nH]cnc4n3)CC1)C2` [Example 11A-68], the results for the 50% inhibitory concentration (IC50) in test [1] and in test [2] were 825 nM and 285 nM, respectively.
In the same order, the values of `CC(C)n1ncc2c1C(=O)CC1(CCN(C(=O)c3cn4cccc4cn3)CC1)C2` [Example 11A-34] are 2140 nM and 638 nM.
`CC(C)(C)n1ncc2c1C(=O)CC1(CCN(C(=O)c3ccc(N4CCOCC4)nc3)CC1)C2` [Example 11A-22]: the results for the IC50 in test [1] and in test [2] were 1260 nM and 539 nM, respectively.
As to `CC(C)n1ncc2c1C(=O)CC1(CCN(C(=O)c3c[nH]c4ccnn4c3=O)CC1)C2` [Example 11A-35], the half-maximal inhibitory concentration (IC50) was 3340 nM in test [1] and 2130 nM in test [2].
For `Cc1nc2ccc(C(=O)N3CCC4(CC3)CC(=O)c3c(cnn3C3COC3)C4)cc2[nH]1` [Example 2A-42] the same measures were 1300 nM and 766 nM.
In the same order, the values of `CC(C)(C)n1ncc2c1C(=O)CC1(CCN(C(=O)c3ccc4cnccc4n3)CC1)C2` [Example 11A-61] are 2570 nM and 1350 nM.
For `CC(C)(C)n1ncc2c1C(=O)CC1(CCN(C(=O)c3ccc4cn[nH]c4c3)CC1)C2` [Example 11A-74] the same measures were 23.7 nM and 16.8 nM.

Usually IC50 stands for the point on the concentration scale where inhibition reaches its midpoint.
